Results: patent US11045561B2, “Rotaxane-type probe for molecular imaging” (Rhode Island Council on Postsecondary Education, priority 2017, dated 2021)

How the values were obtained:
[1] = HyperCEST detection by hyperpolarized 129Xe NMR (fritted phantom, 3T clinical scanner); details: 10 mM in water; saturation pulse at about +128 ppm; 3T scanner
Method: FIGS. 7A and 7B show HyperCEST data for rotaxane-type biosensors: (FIG. 7A) cucurbiturils and pillararene-based; (FIG. 7B) cycodextrin-based. [Note: ^a Samples were dissolved in water (2 mL, 10 mM), and 1D ^129Xe spectrum were initially recorded and then a series of HyperCEST spectra were sequentially recorded using a series of off resonance pulses varying by 5 ppm. ^b Performed in H2O/DMSO. ^c Performed in CHCl3.]
For the HP-Xe studies, we used a custom-built fritted phantom inside of a custom dual tuned ^1H/^129Xe radiofrequency (RF) coil to acquire all free induction decay (FID) spectra (FIG. 6). Rotaxane-type biosensor molecules, dissolved in water and/or DMSO, were placed inside the fritted phantom, and HP ^129Xe was introduced below the fritted phantom that created microbubbles that rose vertically through the sample. A series of saturation pre-pulses at a variety of chemical shift offsets were loaded into the user interface software of the […] Achieva 3T MR scanner. Spectra with different saturation pre-pulses were acquired approximately every six seconds. […]
Nuclear Magnetic Resonance (NMR) HyperCEST Detection. […] The RF pulse length was determined with the use of the Ref B1, a parameter of Philips MR scanners. […] In this study, the B1 field strength was determined by the scanner to be 15.9 μT. […]

[2] = cited from earlier work; for affinity for xenon as observed by 129Xe NMR: aqueous media, room temperature for cyclodextrins

Compound | affinity for xenon as observed by 129Xe NMR [2] | other results
O=C1N2CN3C(=O)N4CN5C(=O)N6CN7C(=O)N8CN9C(=O)N%10CN%11C(=O)N%12CN1C1C2N2CN%13C(=O)N(CN%14C(=O)N(CN%15C(=O)N(CN%16C(=O)N(CN%17C(=O)N(CN1C2=O)C%12C%11%17)C%10C9%16)C8C7%15)C6C5%14)C4C3%13 (stereo not shown) [CB6, cucurbit[6]uril] | – | HyperCEST depletion (maximum) [1]: 67%
O=C1N2CN3C(=O)N4CN5C(=O)N6CN7C(=O)N8CN9C(=O)N%10CN%11C(=O)N%12CN%13C(=O)N%14CN%15C(=O)N%16CN1C1C2N2CN%17C(=O)N(CN%18C(=O)N(CN%19C(=O)N(CN%20C(=O)N(CN%21C(=O)N(CN%22C(=O)N(CN%23C(=O)N(CN1C2=O)C%16C%15%23)C%14C%13%22)C%12C%11%21)C%10C9%20)C8C7%19)C6C5%18)C4C3%17 (stereo not shown) [CB[8], cucurbit[8]uril] | do not show any affinity for xenon | –
COc1cc2c3cc1OCCOc1cc4c(cc1OC)Cc1cc5c(OC)cc1Cc1cc(c(OC)cc1C4)OCCOc1cc(c(cc1OC)C3)Cc1cc(OC)c(cc1C2)OCCO5 [Cryptophane-A] | – | xenon residence time ([2]; room temperature): 0.5 to 8 ms
OC[C@H]1O[C@@H]2O[C@H]3[C@H](O)[C@@H](O)[C@@H](O[C@H]4[C@H](O)[C@@H](O)[C@@H](O[C@H]5[C@H](O)[C@@H](O)[C@@H](O[C@H]6[C@H](O)[C@@H](O)[C@@H](O[C@H]7[C@H](O)[C@@H](O)[C@@H](O[C@H]1[C@H](O)[C@H]2O)O[C@@H]7CO)O[C@@H]6CO)O[C@@H]5CO)O[C@@H]4CO)O[C@@H]3CO [α-CD, α-cyclodextrin] | either fail to bind xenon in aqueous media, or the reversible binding has too fast of an exchange rate to be detectable | –
OC[C@H]1O[C@@H]2O[C@H]3[C@H](O)[C@@H](O)[C@@H](O[C@H]4[C@H](O)[C@@H](O)[C@@H](O[C@H]5[C@H](O)[C@@H](O)[C@@H](O[C@H]6[C@H](O)[C@@H](O)[C@@H](O[C@H]7[C@H](O)[C@@H](O)[C@@H](O[C@H]8[C@H](O)[C@@H](O)[C@@H](O[C@H]1[C@H](O)[C@H]2O)O[C@@H]8CO)O[C@@H]7CO)O[C@@H]6CO)O[C@@H]5CO)O[C@@H]4CO)O[C@@H]3CO [β-CD, β-cyclodextrin] | either fail to bind xenon in aqueous media, or the reversible binding has too fast of an exchange rate to be detectable | –
OC[C@H]1O[C@@H]2O[C@H]3[C@H](O)[C@@H](O)[C@@H](O[C@H]4[C@H](O)[C@@H](O)[C@@H](O[C@H]5[C@H](O)[C@@H](O)[C@@H](O[C@H]6[C@H](O)[C@@H](O)[C@@H](O[C@H]7[C@H](O)[C@@H](O)[C@@H](O[C@H]8[C@H](O)[C@@H](O)[C@@H](O[C@H]9[C@H](O)[C@@H](O)[C@@H](O[C@H]1[C@H](O)[C@H]2O)O[C@@H]9CO)O[C@@H]8CO)O[C@@H]7CO)O[C@@H]6CO)O[C@@H]5CO)O[C@@H]4CO)O[C@@H]3CO [γ-CD, γ-cyclodextrin] | either fail to bind xenon in aqueous media, or the reversible binding has too fast of an exchange rate to be detectable | –
cucurbit[7]uril [CB[7]] | do not show any affinity for xenon | –
